The values that follow come from ChEMBL document CHEMBL4613218, “Synthesis, in vitro and in vivo biological evaluation of novel graveolinine derivatives as potential anti-Alzheimer agents” (Bioorg Med Chem, 2020).

The source made the active and inactive calls. The calls are words filed in the database; no cut-off is given here. Bounds are passed on as bounds.

In one series the target is Acetylcholinesterase (Electrophorus electricus, UniProt O42275). Kind of series: Inhibition of electric eel AChE using acetylthiocholine chloride as substrate preincubated for 15 mins followed by substrate addition by Ellman's method. For orientation: Ellman's reagent forms a yellow product with free thiols.
Acetylcholinesterase, sequence (O42275 whole entry): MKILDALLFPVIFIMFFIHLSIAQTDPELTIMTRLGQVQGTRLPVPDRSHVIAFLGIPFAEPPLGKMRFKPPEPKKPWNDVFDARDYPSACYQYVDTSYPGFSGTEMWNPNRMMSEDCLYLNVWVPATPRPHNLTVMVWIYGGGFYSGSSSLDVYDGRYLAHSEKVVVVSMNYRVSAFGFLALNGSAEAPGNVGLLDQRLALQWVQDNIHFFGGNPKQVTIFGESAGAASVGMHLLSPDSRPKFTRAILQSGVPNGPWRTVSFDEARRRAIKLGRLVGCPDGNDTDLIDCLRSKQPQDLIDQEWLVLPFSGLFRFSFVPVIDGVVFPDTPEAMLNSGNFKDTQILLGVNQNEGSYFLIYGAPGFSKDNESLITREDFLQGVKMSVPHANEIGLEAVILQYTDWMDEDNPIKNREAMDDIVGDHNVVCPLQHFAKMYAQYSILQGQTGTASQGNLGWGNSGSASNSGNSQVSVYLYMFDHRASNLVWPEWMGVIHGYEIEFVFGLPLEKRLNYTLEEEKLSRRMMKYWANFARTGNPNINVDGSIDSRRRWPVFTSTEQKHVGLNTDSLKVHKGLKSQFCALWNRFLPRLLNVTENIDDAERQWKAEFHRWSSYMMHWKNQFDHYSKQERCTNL
The target in the next series is Cholinesterase (Equus caballus, UniProt P81908). Kind of series: Inhibition of equine serum BuChE using butyrylthiocholine chloride as substrate preincubated for 15 mins followed by substrate addition by Ellman's method.
Cholinesterase, sequence (P81908 whole entry): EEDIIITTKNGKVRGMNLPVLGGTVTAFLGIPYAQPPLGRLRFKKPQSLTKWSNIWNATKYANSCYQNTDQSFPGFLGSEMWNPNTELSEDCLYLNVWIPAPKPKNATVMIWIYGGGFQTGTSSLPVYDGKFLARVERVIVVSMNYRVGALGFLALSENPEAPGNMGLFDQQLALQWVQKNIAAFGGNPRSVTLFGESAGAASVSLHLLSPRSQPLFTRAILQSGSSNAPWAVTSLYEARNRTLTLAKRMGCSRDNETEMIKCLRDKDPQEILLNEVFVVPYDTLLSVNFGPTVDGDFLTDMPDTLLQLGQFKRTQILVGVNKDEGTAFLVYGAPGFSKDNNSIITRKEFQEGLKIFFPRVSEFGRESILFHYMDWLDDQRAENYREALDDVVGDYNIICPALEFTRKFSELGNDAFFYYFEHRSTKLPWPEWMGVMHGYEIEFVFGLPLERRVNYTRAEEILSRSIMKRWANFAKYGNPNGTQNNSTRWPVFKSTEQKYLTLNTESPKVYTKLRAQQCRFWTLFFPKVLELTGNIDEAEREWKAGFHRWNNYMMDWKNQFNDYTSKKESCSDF
Series [1] has as its target Amyloid-beta precursor protein (Homo sapiens) (UniProt P05067). Kind of series: Inhibition of self-induced human amyloid beta (1 to 42) peptide aggregation at 20 uM measured after 48 hrs by ThT fluorescence assay relative to control.
Series [2] is described as follows: Cytotoxicity against human HepG2 cells assessed as inhibition of cell viability at 10 uM after 48 hrs by MTT assay relative to control. The format is cell-based. Conditions: read-out: INH. On the technique in general: Tetrazolium assays rely on reduction of a dye to a coloured formazan, in cell work by metabolically active cells.
The test system of another series is HepG2. In words: Cytotoxicity against human HepG2 cells assessed as growth inhibition after 48 hrs by MTT assay. Format: cell-based. Conditions: HepG2, 48 h.
Series [3] in a line: Cytotoxicity against rat PC12 cells assessed as inhibition of cell viability at 10 uM after 48 hrs by MTT assay relative to control. Format: cell-based, PC-12. As to conditions: read-out: INH.
The next series deals with PC-12. In words: Cytotoxicity against rat PC12 cells assessed as growth inhibition after 48 hrs by MTT assay. Format: cell-based. Conditions: PC-12, 48 h.
The nature of series [4]: Selectivity index, ratio of IC50 for electric eel AChE to IC50 for equine serum BuChE.
Series [5] deals with Amyloid-beta precursor protein (Homo sapiens) (UniProt P05067). Kind of series: Inhibition of self-induced human amyloid beta (1 to 42) peptide aggregation assessed as reduction in number of amyloid beta aggregates at 20 uM measured after 48 hrs by TEM analysis.
Amyloid-beta precursor protein (Homo sapiens), sequence (P05067 whole entry): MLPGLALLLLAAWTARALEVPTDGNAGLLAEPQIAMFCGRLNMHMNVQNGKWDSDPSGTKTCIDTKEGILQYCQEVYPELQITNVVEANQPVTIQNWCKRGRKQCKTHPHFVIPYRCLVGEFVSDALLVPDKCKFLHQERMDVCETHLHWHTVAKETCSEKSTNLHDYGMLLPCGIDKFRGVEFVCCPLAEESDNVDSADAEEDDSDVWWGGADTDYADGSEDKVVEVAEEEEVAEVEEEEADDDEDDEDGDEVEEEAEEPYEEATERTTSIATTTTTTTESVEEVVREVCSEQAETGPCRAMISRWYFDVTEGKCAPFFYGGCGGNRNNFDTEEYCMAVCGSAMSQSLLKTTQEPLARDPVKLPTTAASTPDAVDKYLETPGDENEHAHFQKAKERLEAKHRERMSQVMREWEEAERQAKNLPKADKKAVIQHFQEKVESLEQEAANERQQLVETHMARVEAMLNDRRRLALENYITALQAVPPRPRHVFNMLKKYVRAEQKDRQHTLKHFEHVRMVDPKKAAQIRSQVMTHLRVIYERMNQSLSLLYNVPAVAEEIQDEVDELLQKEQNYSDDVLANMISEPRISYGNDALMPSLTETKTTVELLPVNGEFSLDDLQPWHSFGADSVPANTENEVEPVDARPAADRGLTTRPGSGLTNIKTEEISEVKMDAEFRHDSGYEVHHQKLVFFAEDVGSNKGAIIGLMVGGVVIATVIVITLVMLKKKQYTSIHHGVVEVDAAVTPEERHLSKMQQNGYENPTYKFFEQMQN
The target in series [6] is Acetylcholinesterase (Torpedo californica) (UniProt P04058). In words: Non-competitive inhibition of pacific electric ray AChE pre-incubated with enzyme for 15 mins followed by acetylthiocholine chloride substrate addition by spectrophotometric method based Lineweaver-Burk plot analysis. As to conditions: Tetronarce californica.
Acetylcholinesterase (Torpedo californica), sequence (P04058 22-564 limits assumed): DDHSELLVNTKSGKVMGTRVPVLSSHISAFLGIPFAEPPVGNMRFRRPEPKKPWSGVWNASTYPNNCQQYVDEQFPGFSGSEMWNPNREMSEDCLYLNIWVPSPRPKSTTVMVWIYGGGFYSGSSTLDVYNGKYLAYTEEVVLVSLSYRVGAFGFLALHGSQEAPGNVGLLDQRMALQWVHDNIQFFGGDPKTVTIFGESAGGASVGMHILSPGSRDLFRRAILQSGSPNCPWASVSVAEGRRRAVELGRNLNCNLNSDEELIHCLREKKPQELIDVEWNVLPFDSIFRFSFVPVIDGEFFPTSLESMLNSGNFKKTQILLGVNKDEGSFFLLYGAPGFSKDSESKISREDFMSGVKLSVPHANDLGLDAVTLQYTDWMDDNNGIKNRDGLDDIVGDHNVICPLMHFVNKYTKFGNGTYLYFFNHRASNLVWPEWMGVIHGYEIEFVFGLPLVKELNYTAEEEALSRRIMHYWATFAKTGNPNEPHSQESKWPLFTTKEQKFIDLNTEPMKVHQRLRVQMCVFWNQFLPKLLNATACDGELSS
Series [7] has as its system Mus musculus. In words: Antialzheimer activity against scopolamine-induced cognition impairment ICR mouse model assessed as mean escape latency time at 20 umol/kg, po treated 30 mins prior to scopolamine challenge and measured at 30 mins post-scopolamine challenge for 4 days of training trial sessions by Morris water maze test (reference value: 59.8 to 62.2 secs). The format is functional.

For series [8], the system named is Mus musculus. Kind of series: Antialzheimer activity against scopolamine-induced cognition deficit ICR mouse model assessed as increase in number of platform crossings at 20 umol/kg, po treated 30 mins prior to scopolamine challenge and measured at 30 mins post-scopolamine challenge on day 15 of probe trial by Morris water maze test. Format: functional, organism-based.

Series [9] deals with Mus musculus. In words: Antialzheimer activity against scopolamine-induced cognition impairment ICR mouse model assessed as increase in path length in target quadrant at 20 umol/kg, po treated 30 mins prior to scopolamine challenge and measured at 30 mins post-scopolamine challenge on day 15 of probe trial by Morris water maze test. The format is functional, organism-based.

Series [10] concerns Mus musculus. In words: Antialzheimer activity against scopolamine-induced cognition impairment ICR mouse model assessed as increase in swimming time in target quadrant at 20 umol/kg, po treated 30 mins prior to scopolamine challenge and measured at 30 mins post-scopolamine challenge on day 15 of probe trial by water maze test. The format is functional, organism-based.
The nature of series [11]: Toxicity in scopolamine-induced cognition deficit ICR mouse model assessed as effect on swimming speed at 20 umol/kg, po treated 30 mins prior to scopolamine challenge and measured at 30 mins post-scopolamine challenge on day 15 of probe trial by Morris water maze test. Format: organism-based. As to conditions: in vivo, 0.5 h.
Series [12] in a line: Toxicity in scopolamine-induced cognition deficit ICR mouse model assessed as effect on total distance travelled at 20 umol/kg, po treated 30 mins prior to scopolamine challenge and measured at 30 mins post-scopolamine challenge on day 15 of probe trial by Morris water maze test. Format: organism-based. Conditions: in vivo, 0.5 h.

As a reminder, the IC50 is the midpoint of a concentration-inhibition curve. Usually inhibition stands for the change of the read-out against control, counted positive when it falls. As to `OCCCNc1cc(-c2ccccc2)nc2ccccc12`, the 50% inhibitory concentration (IC50) against Acetylcholinesterase is greater than 10 µM; at Cholinesterase, greater than 10 µM; in the series with HepG2, greater than 50 µM; in the series on PC-12 it was greater than 50 µM. Moreover, the inhibition in [1] stood at 36.8%. For the same compound, the cytotoxicity at 48 h, 10 µM in series [2] and in [3] was less than 5% throughout.
For the compound `c1ccc(-c2cc(N3CCCC3)c3ccccc3n2)cc1`, the IC50 against Acetylcholinesterase stood at 3.71 µM; on Cholinesterase, 0.43 µM; in the series on HepG2 it was 30.9 µM; in the series with PC-12, 24.7 µM. For the same compound, the Ratio IC50 in series [4] amounted to 8.6. The compound further gave an inhibition in series [1] of 57.7%. In addition, the cytotoxicity at 48 h, 10 µM turned out to be 12.6% in series [2] and 24.2% in series [3].
As to `c1ccc(-c2cc(NCCCN3CCOCC3)c3ccccc3n2)cc1`, the IC50 at Acetylcholinesterase was greater than 10 µM; on Cholinesterase, 4.44 µM; in the series on HepG2 it was 30.1 µM; in the series with PC-12, 35.2 µM. Moreover, the Ratio IC50 in series [4] was greater than 2.3. In addition, the inhibition in series [1] came to 55.5%. The cytotoxicity at 48 h, 10 µM in series [2] was 12.7%; in [3], 12.6%.
As for `OCCCNc1cc(-c2ccc3c(c2)OCO3)nc2ccccc12`, the IC50 is 4.23 µM against Acetylcholinesterase, greater than 10 µM on Cholinesterase, greater than 50 µM in the series with HepG2 and greater than 50 µM in the series with PC-12. Besides, the Ratio IC50 in series [4] was less than 0.42. The inhibition in series [1] was determined as 36.6%. Further, the values for the cytotoxicity at 48 h, 10 µM in series [2] and in series [3] were less than 5% and 8.38%, respectively.
As for `OCCCCCCNc1cc(-c2ccc3c(c2)OCO3)nc2ccccc12`, the IC50 against Acetylcholinesterase is 4.32 µM; on Cholinesterase, 6.49 µM; in the series with HepG2, greater than 50 µM; with PC-12, greater than 50 µM. Moreover, the Ratio IC50 in [4] came to 0.67. The compound also displayed an inhibition in series [1] of 39.4%. Also, the cytotoxicity at 48 h, 10 µM in series [2] and in series [3] was less than 5% each time.
With `COc1cc(/C=C/C(=O)CC(=O)/C=C/c2ccc(O)c(OC)c2)ccc1O`, in series [5], the inhibition result was “Active”.
In the case of `c1ccc(-c2cc(NCCCN3CCCCC3)c3ccccc3n2)cc1`, the IC50 was greater than 10 µM on Acetylcholinesterase, 1.19 µM against Cholinesterase, 25.7 µM in the series on HepG2 and 40.5 µM in the series with PC-12. Moreover, the Ratio IC50 in series [4] was greater than 8.4. Further, the inhibition in series [1] came to 60.3%. The cytotoxicity at 48 h, 10 µM was found to be 24.1% in series [2] and 11.6% in series [3].
Turning to `c1ccc2c(N3CCCC3)cc(-c3ccc4c(c3)OCO4)nc2c1`, the half-maximal inhibitory concentration (IC50) on Acetylcholinesterase is 0.72 µM; against Cholinesterase it was 0.16 µM; in the series with HepG2 it was greater than 50 µM; with PC-12, greater than 50 µM. Also, the Ratio IC50 in series [4] amounted to 4.5. The inhibition result in [6] and in series [5] was “Active” throughout. In addition, in [1], the inhibition stood at 62.5%. Also, the cytotoxicity at 48 h, 10 µM in series [2] and in series [3] was less than 5% each time. Besides, the Time in the series with Mus musculus [7] came out at 48.1 s. Besides, the outcome in the series with Mus musculus [8], with Mus musculus [9] and in the series with Mus musculus [10] was Active. Besides, the Activity entry in series [11] and in [12] was “Non-Toxic” in each case.
For `COc1cc(-c2ccc3c(c2)OCO3)nc2ccccc12` [GRAVEOLININE], the IC50 against Acetylcholinesterase is 36.3 µM; at Cholinesterase it was 28.2 µM; with HepG2, greater than 50 µM; with PC-12, greater than 50 µM. For the same compound, the Ratio IC50 in [4] amounted to 1.3. Moreover, the inhibition in [1] was 26.9%. Moreover, the cytotoxicity at 48 h, 10 µM is 8.76% in series [2] and less than 5% in series [3].
Take `c1ccc2c(NCCCN3CCOCC3)cc(-c3ccc4c(c3)OCO4)nc2c1`: the half-inhibitory concentration (IC50) at Acetylcholinesterase was 3.22 µM; on Cholinesterase, 8.15 µM; in the series with HepG2, 17.7 µM; in the series on PC-12, greater than 50 µM. Besides, the Ratio IC50 in series [4] was determined as 0.4. Also, in [1], the inhibition worked out at 61.6%. In addition, the cytotoxicity at 48 h, 10 µM in series [2] and in [3] was less than 5% each time.
As for `CCCCNc1cc(-c2ccc3c(c2)OCO3)nc2ccccc12`, the half-maximal inhibitory concentration (IC50) against Acetylcholinesterase is 4.8 µM; against Cholinesterase it was 7.85 µM; in the series on HepG2 it was greater than 50 µM; in the series on PC-12 it was 46.2 µM. Also, in series [4], the Ratio IC50 was determined as 0.61. Also, the inhibition in series [1] is 30.6%. In addition, the cytotoxicity at 48 h, 10 µM in series [2] was 15.4%; in series [3], 11.2%.
For `OCCCCNc1cc(-c2ccccc2)nc2ccccc12`, the IC50 was 9.85 µM at Acetylcholinesterase, 4.31 µM against Cholinesterase, greater than 50 µM with HepG2 and greater than 50 µM with PC-12. Further, the Ratio IC50 in series [4] is 2.3. This compound returned an inhibition in [1] of 40.7%. The cytotoxicity at 48 h, 10 µM in series [2] and in series [3] was less than 5% each time.
As for `OCCCCNc1cc(-c2ccc3c(c2)OCO3)nc2ccccc12`, the IC50 was 4.26 µM on Acetylcholinesterase, 9.78 µM against Cholinesterase, greater than 50 µM with HepG2 and 34.3 µM with PC-12. Moreover, the Ratio IC50 in series [4] was 0.44. The same compound returned an inhibition in [1] of 44.1%. In addition, the values for the cytotoxicity at 48 h, 10 µM in [2] and in series [3] were less than 5% and 14.7%, respectively.
On to `c1ccc2c(NCCCN3CCCCC3)cc(-c3ccc4c(c3)OCO4)nc2c1`, for which the IC50 against Acetylcholinesterase was 4.78 µM; against Cholinesterase it was 1.45 µM; with HepG2, 9.21 µM; in the series on PC-12, 7.17 µM. Besides, in [4], the Ratio IC50 was 3.3. The same compound showed an inhibition in [1] of 65.6%. Moreover, the cytotoxicity at 48 h, 10 µM came out at 43.7% in [2] and 71.5% in [3].
Consider `OCCCCCCNc1cc(-c2ccccc2)nc2ccccc12`, for which the IC50 against Acetylcholinesterase was 6.22 µM; on Cholinesterase, 2.96 µM; with HepG2 it was 44.2 µM; with PC-12 it was greater than 50 µM. Also, the Ratio IC50 in series [4] worked out at 2.1. This compound had an inhibition in series [1] of 29.2%. For the same compound, the results for the cytotoxicity at 48 h, 10 µM in series [2] and in [3] were 12% and less than 5%, respectively.
As for `c1ccc2c(N3CCCCC3)cc(-c3ccc4c(c3)OCO4)nc2c1`, the IC50 was greater than 10 µM against Acetylcholinesterase, 2.09 µM against Cholinesterase, greater than 50 µM in the series with HepG2 and greater than 50 µM with PC-12. For the same compound, in series [4], the Ratio IC50 was greater than 4.8. This compound had an inhibition in [1] of 48.5%. For the same compound, the cytotoxicity at 48 h, 10 µM in series [2] and in series [3] was less than 5% in each case.
